The values that follow come from patent US20110046101A1, “BATE-LACTAMASE INHIBITORS” (priority 2008, published 2011).

One may read the IC50 as the concentration that inhibits the measured activity by half.

One experiment has as its target T1, OXA-10 (Pseudomonas aeruginosa, UniProt P14489).
T1 construct: made in house; host or cells: E. coli (pEt24a(+) plasmid from Dr. S. Mobashery)
As to the kind of experiment: biochemical. Type of experiment: biochemical. As to the method: (§1) Compounds of the present application were evaluated as inhibitors of two Class B β-lactamases (IMP-1 and VIM-2) and two Class D β-lactamases OXA-10 and OXA-45).
OXA-10 was overexpressed in E. coli using the pEt24a(+) plasmid, encoding OXA-10, which was provided by Dr. S. Mobashery, University of Notre Dame, and was purified as described by Golemi et al., J. Am. Chem. Soc. 2000, 122, 6132-6133.
(§2) Two methods were used for measurement of β-lactamase activity, based on the use of the substrate nitrocefin. The first was carried out in a cuvette (final volume 1 ml, 25° C.) with the aid of a Cary 5 spectrophotometer, and second was with the use of a Molecular Devices Spectramax 190 96 well plate reader (final volume 100 μl, 30° C.).
(§3) All assays were performed in the appropriate buffer for the enzyme: (i) IMP-1, VIM-2: 50 mM Hepes pH 7.3, 1 μg/ml BSA, 1 μM ZnSO4; (ii) OXA-45: 100 mM Na Phosphate/25 mM NaCO3 pH 7.0, 1 μg/ml BSA; and (iii) OXA-10: 100 mM Na Phosphate/25 mM NaCO3 pH 7.0. Enzyme concentrations were chosen so that a reasonable rate of reaction was observed. Inhibitors were dissolved in DMSO, with the final concentration of DMSO in the assay being 1%. Nitrocefin was dissolved in DMSO and diluted in 50 mM Hepes pH 7.3 with the final concentration in the assay being 100 μM. The enzyme was allowed to react with the inhibitor for a predetermined time followed by addition of substrate to initiate the reaction, which was monitored for an increase in absorbance at 482 nm. IC50 values were determined by plotting percent loss of initial activity vs log inhibitor concentration. Controls were run to ensure that there was minimal loss of activity with DMSO (<10%). When inhibition by DMSO was noted, 0.5 M NaCl was added to stabilize the enzyme.

The target in a further experiment is T2, IMP-1 (Serratia marcescens, UniProt P52699).
T2 construct: made in house; host or cells: E. coli (pCIP4 plasmid from Dr. M. Galleni)
As to the kind of experiment: biochemical. As to conditions: for IC50: IC50 (μM) class B IMP-1, nitrocefin 100 μM, 50 mM Hepes pH 7.3. As to the method:
as §1
IMP-1 was overexpressed in E. coli using the pCIP4 plasmid encoding IMP-1 which was obtained from Dr. M. Galleni, Université de Liège, B-4000 Liege, Belgium, and was purified as described by Laraki, N. et al., Antimicrob. Agents Chemother. 1999 43, 902-906.
as §2, §3

The next experiment addresses T3, VIM-2 (Escherichia coli, UniProt Q5U7L7).
T3 construct: made in house; host or cells: E. coli DH10B (pNOR,2001 plasmid from Dr. P. Nordmann)
In words: biochemical. Type of experiment: biochemical. As to the method: as §1
VIM-2 was overexpressed in E. coli (DH10B) containing the pNOR,2001 plasmid, encoding VIM-2, which was provided by Dr. P. Nordmann, Universite de Paris, and was purified as described by Poirel et al., Antimicrob. Agents Chemother. 2000, 44, 891-897.
as §2, §3

The target in a further experiment is OXA-45 (Pseudomonas aeruginosa, UniProt Q7WZC7). As to the kind of experiment: β-lactamase inhibition assay with nitrocefin substrate, OXA-45. Type of experiment: biochemical. Here is the method: as §1
OXA-45 was a gift from Dr. J. Spencer, University of Bristol, and had been prepared and purified as described by Toleman, M. A. et al., Antimicrob. Agents Chemother. 2003, 47, 2859-2863.
as §2, §3

Experiment [1] concerns Pseudomonas aeruginosa strain 81-11963 (produces metallo β-lactamase VIM-2). In words: Agar dilution MIC, synergy with pipericillin, P. aeruginosa. The conditions noted are these: P. aeruginosa strain 81-11963 (VIM-2), compound at ¼ the concentration of the antibiotic, 18 h. Type of experiment: cell-based. As to the method:
(§4) Such compounds were expected to enhance the potency of a clinically useful β-lactam antibiotic against clinical isolates of human pathogenic bacteria which are highly resistant to β-lactam antibiotics. Certain β-lactamase inhibitors were tested to determine whether or not they would have a synergistic effect on the antibacterial activity of pipericillin against β-lactam antibiotic resistant bacterial clinical isolates using the Agar Dilution Method.
(§5) Bacterial colonies were taken from overnight blood agar plates, and sterile saline was inoculated to make a 0.5 McFarland suspension inoculum and further diluted such that the 10^4 CFU spots were delivered to the MHA (Oxoid) surface. Inhibitor samples were dissolved in DMSO and administered at a pipericillin:compound ratio of 4:1 (wt/wt). The plates were incubated at 35° C. and read after 18 h of incubation. MICs were measured by agar dilution on Mueller-Hinton II agar (BD Microbiology Systems, Cockeysville, Md., USA), as recommended by the NCCLS (National Committee for Clinical Laboratory Standards. (2003).Performance Standards for Antimicrobial Susceptibility Testing.)
(In general: Agar dilution tests growth on a series of plates holding different concentrations.)

Experiment [2] deals with Stenotrophomonas maltophilia strain 92-00626 (produces metallo β-lactamase L1). In words: Agar dilution MIC, synergy with pipericillin, S. maltophilia. Type of experiment: cell-based. As to conditions: S. maltophilia strain 92-00626 (L1), compound at ¼ the concentration of the antibiotic, 18 h. As to the method: as §4, §5
Where [3] appears, read: nitrocefin 100 μM, 100 mM Na Phosphate/25 mM NaCO3 pH 7.0, read-out: IC50 (μM) class D OXA-45.

Structures are written as SMILES. “And” between values parts separate entries of the source, which are not always exact repeats. Identical values can stand only once. Like-named read-outs stand apart in the source and are kept apart here.

T2 sequence (P52699 19-246 limits assumed): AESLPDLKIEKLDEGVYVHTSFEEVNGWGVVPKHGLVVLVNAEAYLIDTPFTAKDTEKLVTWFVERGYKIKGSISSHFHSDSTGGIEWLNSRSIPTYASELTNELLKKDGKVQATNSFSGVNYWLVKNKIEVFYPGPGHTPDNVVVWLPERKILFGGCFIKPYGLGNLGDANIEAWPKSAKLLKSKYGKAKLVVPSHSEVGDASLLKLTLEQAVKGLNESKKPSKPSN
T1 sequence (P14489 20-266): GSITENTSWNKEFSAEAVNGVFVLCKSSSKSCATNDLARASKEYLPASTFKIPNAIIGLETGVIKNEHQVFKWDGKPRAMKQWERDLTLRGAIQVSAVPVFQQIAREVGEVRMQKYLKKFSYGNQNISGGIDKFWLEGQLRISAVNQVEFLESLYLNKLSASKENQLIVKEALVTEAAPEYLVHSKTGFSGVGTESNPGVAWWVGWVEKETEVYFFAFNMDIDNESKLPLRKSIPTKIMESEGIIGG
Sequence of OXA-45 (Q7WZC7 entry or part of it): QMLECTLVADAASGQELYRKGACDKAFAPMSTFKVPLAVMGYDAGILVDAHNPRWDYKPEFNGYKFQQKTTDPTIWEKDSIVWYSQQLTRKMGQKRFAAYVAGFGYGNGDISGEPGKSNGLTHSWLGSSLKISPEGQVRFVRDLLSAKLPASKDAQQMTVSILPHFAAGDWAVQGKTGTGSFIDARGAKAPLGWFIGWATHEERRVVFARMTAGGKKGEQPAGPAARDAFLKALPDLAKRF

As to `CC(C)(C)c1ccc(C(=O)N/N=C/c2ccc3c(c2)OCO3)cc1` [Compound 11, N′-(Benzo[d][1,3]dioxol-5-ylmethylene)-4-t-butylbenzohydrazide], the IC50 against OXA-10, against IMP-1, on VIM-2 and against OXA-45 was above 10 µM each time.
For the compound `O=C(N/N=C/c1cccc(Oc2ccccc2)c1)c1cc2ccccc2cc1O` [Compound 7, 3-Hydroxy-N-(3-phenoxybenzylidene)-2-naphthohydrazide], the IC50 on OXA-10 was determined as 1.8 µM; against IMP-1, 7 µM; at VIM-2, 8.5 µM; against OXA-45, 0.56 µM.
The matching figures for `O=C(N/N=C/c1ccccc1O)c1cccnc1` [Compound 13, N′-(2-Hydroxybenzylidene)nicotinohydrazide]: above 100 µM, above 100 µM, above 100 µM and above 100 µM.
`O=C(N/N=C/c1ccccc1O)c1cc2ccccc2cc1O` [Compound 3, 3-Hydroxy-N′-(2-hydroxybenzylidene)-2-naphthohydrazide]: on OXA-10, it took 3.9 µM to reach half-maximal inhibition (IC50) and the “inhibition of OXA-10 (in words)” value was “inhibited”. Besides, on IMP-1, the “inhibition of IMP-1 (in words)” value is reported as “inhibited” and it took 8.3 µM to reach half-maximal inhibition (IC50). Besides, at VIM-2, it took 18.2 µM to reach half-maximal inhibition (IC50) and the “inhibition of VIM-2 (in words)” value is recorded as “inhibited”. For the same compound, in experiment [1], the “diminution in the MIC value found for pipericillin” value is recorded as “greater than 4 fold”. Further, the “inhibition of OXA-45 (in words)” value on OXA-45 is listed as “inhibited”. Moreover, the IC50 on OXA-45 (setting [3]) was 0.25 µM.
Turning to `CC(C)(C)c1ccc(C(=O)N/N=C/c2ccccc2O)cc1` [Compound 5, 4-t-Butyl-N′-(2-hydroxybenzylidene)benzohydrazide], the IC50 on OXA-10 amounted to 12.8 µM; at IMP-1 it was 9 µM; on VIM-2, 18 µM; at OXA-45 (setting [3]), 28 µM. In addition, the “inhibition of OXA-10 (in words)” value at OXA-10 was “inhibited”. Also, the “inhibition of IMP-1 (in words)” value on IMP-1 was “inhibited”. At VIM-2, the “inhibition of VIM-2 (in words)” value is given as “inhibited”. At OXA-45, the “inhibition of OXA-45 (in words)” value is listed as “inhibited”. Also, in experiment [2], the “diminution in the MIC value found for pipericillin” value is reported as “greater than 4 fold”.
On to `O=C(N/N=C/c1c2ccccc2cc2ccccc12)c1cc2ccccc2cc1O` [Compound 6, N′-(Anthracen-9-ylmethylene)-3-hydroxy-2-naphthohydrazide], for which the IC50 was 2.8 µM at OXA-10, 1.02 µM against IMP-1, 12.3 µM on VIM-2 and 0.57 µM on OXA-45 (setting [3]).
As for `CC(C)(C)c1ccc(C(=O)N/N=C/c2cccc(Oc3ccccc3)c2)cc1` [Compound 8, 4-t-Butyl-N′-(3-phenoxybenzylidene)benzohydrazide], the IC50 was determined as 10.3 µM at OXA-10, 6.7 µM at IMP-1, 23.9 µM at VIM-2 and 4.3 µM on OXA-45.
On to `O=C(N/N=C/c1ccccc1O)c1ccc2ccccc2c1` [Compound 2, N′-(2-Hydroxybenzylidene)-2-naphthohydrazide], for which, at OXA-10, the IC50 worked out at 15.2 µM and the “inhibition of OXA-10 (in words)” value was “inhibited”. In addition, on IMP-1, the “inhibition of IMP-1 (in words)” value is reported as “inhibited” and half-maximal inhibition (IC50) was put at 38.3 µM. Also, at VIM-2, the IC50 came out at 35.1 µM and the “inhibition of VIM-2 (in words)” value is on record as “inhibited”. Further, at OXA-45, half-maximal inhibition (IC50) was put at 1.8 µM and the “inhibition of OXA-45 (in words)” value is listed as “inhibited”.
For `CC(C)(C)c1ccc(C(=O)N/N=C/c2c(O)ccc3ccccc23)cc1` [Compound 4, 4-t-Butyl-N′-((2-hydroxynaphthalen-1-yl)methylene)benzohydrazide], on OXA-10, the IC50 amounted to 1.7 µM and the “inhibition of OXA-10 (in words)” value is given as “inhibited”. For the same compound, on IMP-1, the “inhibition of IMP-1 (in words)” value was “inhibited” and the IC50 was 3 µM. On VIM-2, the IC50 was found to be 9 µM and the “inhibition of VIM-2 (in words)” value was “inhibited”. For the same compound, the “inhibition of OXA-45 (in words)” value at OXA-45 was “inhibited”. Besides, at OXA-45 (setting [3]), the IC50 worked out at 1.7 µM.
In the case of `O=C(N/N=C/c1ccccc1O)c1ccccc1O` [Compound 15, 2-Hydroxy-N′-(2-hydroxybenzylidene)benzohydrazide], the IC50 on OXA-10, against IMP-1, against VIM-2 and at OXA-45 (setting [3]) was above 40 µM throughout.
As to `O=C(N/N=C/c1ccccc1O)c1ccncc1` [Compound 14, N′-(2-Hydroxybenzylidene)isonicotinohydrazide], the IC50 against OXA-10, at IMP-1, at VIM-2 and at OXA-45 (setting [3]) was above 100 µM in each case.
Regarding `CC(C)(C)c1ccc(C(=O)N/N=C/c2ccccc2[N+](=O)[O-])cc1` [Compound 12, 4-t-Butyl-N′-(2-nitrobenzylidene)benzohydrazide], the IC50 on OXA-10, on IMP-1, at VIM-2 and on OXA-45 (setting [3]) was above 10 µM each time.
For the compound `CC(C)(C)c1ccc(C(=O)N/N=C/c2ccccc2OCc2ccccc2)cc1` [Compound 10, N′-(2-(Benzyloxy)benzylidene)-4-t-butylbenzohydrazide], the IC50 against OXA-10 was above 10 µM; at IMP-1, 4.7 µM; against VIM-2 it was above 10 µM; at OXA-45 (setting [3]), above 10 µM.
`CC(C)(C)c1ccc(C(=O)N/N=C/c2c3ccccc3cc3ccccc23)cc1` [Compound 1, N′-(Anthracen-9-ylmethylene)-4-t-butylbenzohydrazide]: the IC50 against IMP-1 was 0.9 µM and 0.91 µM.
